In patent publication US6030942A, “Peptides peptide analogs peptidomimetics and other small molecules useful for inhibiting the activity of ribonucleotide reductase” (The Trustees of the University of Pennsylvania, priority 1998, dated 2000):
“Also recorded” adds a separate entry of the source. Read-outs that look alike come from different tables or passages of the source. Each block holds one compound with its values, some of them ahead of it. Ends that are not written are not given here.

Columns and labels:
[1] = biological target: T1, mammalian ribonucleotide reductase (Bos taurus, UniProt Q32LP1); experiment: Peptide inhibition of mammalian ribonucleotide reductase activity; format: biochemical; conditions: for IC50 / % RI (relative inhibitory potency, (IC50 AcFTLDADF)/(IC50 peptide analog)) / Fold decrease in RI relative to N-AcFTLDADF: Table 8; for IC50: Dixon plots of 4-6 concentration points, ranges are two independent determinations; for % RI (relative inhibitory potency, (IC50 AcFTLDADF)/(IC50 peptide analog)): mean and average deviation of 2-3 determinations, others single
T1 sequence (Q32LP1 1-791): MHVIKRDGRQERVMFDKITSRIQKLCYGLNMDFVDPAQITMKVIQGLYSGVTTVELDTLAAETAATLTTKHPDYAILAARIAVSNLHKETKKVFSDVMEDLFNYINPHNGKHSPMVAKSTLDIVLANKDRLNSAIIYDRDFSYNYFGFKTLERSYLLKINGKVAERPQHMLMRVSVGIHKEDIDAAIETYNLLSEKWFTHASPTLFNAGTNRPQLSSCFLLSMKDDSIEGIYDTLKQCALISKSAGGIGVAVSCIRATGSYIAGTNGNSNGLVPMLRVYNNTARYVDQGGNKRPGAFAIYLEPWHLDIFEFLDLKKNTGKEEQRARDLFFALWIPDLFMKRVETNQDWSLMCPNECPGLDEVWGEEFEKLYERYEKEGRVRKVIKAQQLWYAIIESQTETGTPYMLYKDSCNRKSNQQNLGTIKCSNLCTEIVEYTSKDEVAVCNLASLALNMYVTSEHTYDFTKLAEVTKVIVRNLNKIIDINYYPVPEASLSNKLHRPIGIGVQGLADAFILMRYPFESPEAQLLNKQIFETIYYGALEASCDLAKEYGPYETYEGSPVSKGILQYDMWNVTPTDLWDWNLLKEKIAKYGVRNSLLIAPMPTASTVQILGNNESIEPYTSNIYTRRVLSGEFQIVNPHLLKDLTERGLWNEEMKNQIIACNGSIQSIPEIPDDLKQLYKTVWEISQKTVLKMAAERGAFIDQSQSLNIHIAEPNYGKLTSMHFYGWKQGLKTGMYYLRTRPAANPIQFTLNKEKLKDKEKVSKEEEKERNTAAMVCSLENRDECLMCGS
Description: All three methods yielded acceptable results, with the following limitations. Method 1 is useful for the assay of CDP to dCDP and ADP to dADP conversions, but is not useful for the assay of GDP reduction. It is also sensitive to large changes in the nucleotide composition of the assay medium. […] Method 2 is the easiest to perform on purified enzymes, and can be used with all four NDPs as substrates, but is difficult to use with crude enzyme, largely because contaminating phosphatase activities can skew results. Method 3 is usable with all four NDPs, but is also somewhat sensitive to large changes in the nucleotide composition of the assay medium and requires column separation at 4° C.

[2] = biological target: T2, mouse Y177F-R2 with recombinant mouse R1 (Mus musculus, UniProt P07742+P11157, Y177F); experiment: Inhibition of Y177F-R2-dependent RR activity; conditions: dATP in presence of relatively high ATP
T2 sequence (P07742 1-792): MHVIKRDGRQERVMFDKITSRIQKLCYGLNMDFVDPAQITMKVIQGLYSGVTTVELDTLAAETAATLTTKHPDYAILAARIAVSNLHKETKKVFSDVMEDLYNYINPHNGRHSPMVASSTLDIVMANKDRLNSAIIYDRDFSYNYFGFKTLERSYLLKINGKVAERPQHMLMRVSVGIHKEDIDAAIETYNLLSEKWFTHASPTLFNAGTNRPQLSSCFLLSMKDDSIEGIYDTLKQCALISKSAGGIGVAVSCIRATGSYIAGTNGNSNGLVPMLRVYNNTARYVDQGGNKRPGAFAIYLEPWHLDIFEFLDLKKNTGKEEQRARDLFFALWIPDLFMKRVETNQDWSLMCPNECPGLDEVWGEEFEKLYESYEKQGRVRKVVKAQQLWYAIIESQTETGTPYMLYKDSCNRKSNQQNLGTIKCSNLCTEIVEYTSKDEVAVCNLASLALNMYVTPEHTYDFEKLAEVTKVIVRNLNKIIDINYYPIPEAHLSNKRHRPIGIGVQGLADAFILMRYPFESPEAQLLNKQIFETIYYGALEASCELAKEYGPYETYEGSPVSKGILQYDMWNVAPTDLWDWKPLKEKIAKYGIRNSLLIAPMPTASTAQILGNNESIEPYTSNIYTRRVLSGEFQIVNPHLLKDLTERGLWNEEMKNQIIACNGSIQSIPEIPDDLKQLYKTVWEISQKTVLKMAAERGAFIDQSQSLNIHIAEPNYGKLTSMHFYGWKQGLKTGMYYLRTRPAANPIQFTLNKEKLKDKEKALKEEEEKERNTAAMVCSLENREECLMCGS
T2 sequence (P11157 1-390 Y177F): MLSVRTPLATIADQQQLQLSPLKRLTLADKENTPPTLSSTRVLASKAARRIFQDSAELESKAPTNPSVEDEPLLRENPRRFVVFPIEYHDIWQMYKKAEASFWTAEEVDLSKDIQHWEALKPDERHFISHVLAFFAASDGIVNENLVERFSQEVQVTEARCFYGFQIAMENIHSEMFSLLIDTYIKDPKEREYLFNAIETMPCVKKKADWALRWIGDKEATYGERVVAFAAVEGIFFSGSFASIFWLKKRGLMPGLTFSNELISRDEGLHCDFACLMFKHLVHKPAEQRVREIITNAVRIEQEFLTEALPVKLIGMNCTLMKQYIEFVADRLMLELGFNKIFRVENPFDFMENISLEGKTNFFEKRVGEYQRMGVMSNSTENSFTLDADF

[3] = biological target: T3, RR (Mus musculus, UniProt P07742); experiment: Biological Evaluation of Compound (8): RR activity; format: biochemical
T3 sequence (P07742 1-792): T2 sequence (P07742 1-792)
Description: Standard assays of RR activity used in the studies presented herein involve the conversion of [^3 H]-ribonucleoside diphosphate (NDP) to [^3 H]-deoxyribonucleoside diphosphate (dNDP), using dithiothreitol as the external reductant. Three methods were examined: Method 1 (Steeper et al., 1970, Anal. Biochem. 34:123-130), involving the conversion of diphosphates to nucleosides by enzymatic digestion, followed by the separation of deoxynucleoside from nucleoside on Dowex-1-borate columns; Method 2 (Moore et al., 1974, Biochemistry 13:2904-2907), involving the direct separation of dNDP from NDP on aminophenylboronate columns; Method 3 (Sato et al., 1983, Anal. Biochem. 135:431-435) involving the conversion of diphosphates to nucleosides by enzymatic digestion, followed by the separation of deoxynucleoside from nucleoside on polyethyleneimine-cellulose columns.
All three methods yielded acceptable results, with the following limitations. Method 1 is useful for the assay of CDP to dCDP and ADP to dADP conversions, but is not useful for the assay of GDP reduction. It is also sensitive to large changes in the nucleotide composition of the assay medium. Thus, it is quite useful for standard assays (purifications, tests of peptide inhibition), but difficult to apply when concentrations and substrate are widely varied. […]

[4] = biological target: E. coli RR (Escherichia coli, UniProt P00452); conditions: cited from earlier work
[5] = biological target: T4, mouse R1 (Mus musculus, UniProt P07742); conditions: cited from earlier work
T4 construct: made in house; host or cells: R1: Hi5 or Sf9 insect cells (baculovirus); R2: E. coli
T4 sequence (P07742 1-792): T2 sequence (P07742 1-792)

E. coli RR, sequence (P00452 whole entry): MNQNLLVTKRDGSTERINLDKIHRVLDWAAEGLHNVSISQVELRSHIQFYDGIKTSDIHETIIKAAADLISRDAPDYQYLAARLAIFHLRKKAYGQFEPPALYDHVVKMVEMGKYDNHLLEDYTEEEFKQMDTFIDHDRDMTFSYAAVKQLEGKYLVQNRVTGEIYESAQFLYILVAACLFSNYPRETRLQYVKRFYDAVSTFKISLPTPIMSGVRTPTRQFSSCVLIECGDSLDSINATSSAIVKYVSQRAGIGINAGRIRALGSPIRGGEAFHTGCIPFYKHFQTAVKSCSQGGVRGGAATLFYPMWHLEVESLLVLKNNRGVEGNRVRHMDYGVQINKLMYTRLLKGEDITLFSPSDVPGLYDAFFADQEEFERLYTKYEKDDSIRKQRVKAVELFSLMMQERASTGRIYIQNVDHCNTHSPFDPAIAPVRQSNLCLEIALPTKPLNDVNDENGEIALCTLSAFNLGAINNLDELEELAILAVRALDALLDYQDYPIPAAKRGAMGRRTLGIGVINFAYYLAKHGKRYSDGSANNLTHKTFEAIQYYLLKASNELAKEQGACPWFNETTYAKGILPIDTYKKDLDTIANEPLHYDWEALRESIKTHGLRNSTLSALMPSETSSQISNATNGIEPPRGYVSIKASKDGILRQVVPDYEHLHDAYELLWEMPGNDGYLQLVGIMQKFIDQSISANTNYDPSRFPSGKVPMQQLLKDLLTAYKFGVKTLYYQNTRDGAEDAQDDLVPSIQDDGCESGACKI

Compound: Ac-FLDADF [Ac-F-LDADF]
IC50 ([1]; read-out: IC50): 412 µM

Compound: Ac-FALDADF [Ac-FALDADF, Acetyl-Phe-Ala-Leu-Asp-Ala-Asp-Phe]
IC50 ([1]; read-out: IC50): 35 to 40 µM

Compound: Ac-FTLDANF [Ac-FTLDANF]
Fold decrease in RI relative to N-AcFTLDADF [1]: three to four
% RI (relative inhibitory potency, (IC50 AcFTLDADF)/(IC50 peptide analog)) [1]: 23 ± 1.0%

Compound: Acetyl-(p-azido-Phe)-Thr-Leu-Asp-Ala-Asp-Phe [Ac-F(4'-N3)TLDADF]
Fold decrease in RI relative to N-AcFTLDADF [1]: five to ten
% RI (relative inhibitory potency, (IC50 AcFTLDADF)/(IC50 peptide analog)) [1]: 10%

Compound: Ac-FTLAADF [Ac-FTLAADF]
Fold decrease in RI relative to N-AcFTLDADF [1]: > 30 fold
% RI (relative inhibitory potency, (IC50 AcFTLDADF)/(IC50 peptide analog)) [1]: 2.9 ± 0.4%

Compound: Ac-FTLDADF [Ac-FTLDADF, Acetyl-Phe-Thr-Leu-Asp-Ala-Asp-Phe]
IC50 ([1]; read-out: IC50): 8 to 20 µM
RR Activity ([3]; compound at 10 μM): 0.39 ± 0.07
RR Activity ([3]; compound at 66 μM): 0.12
IC50 ([4]; E. coli R1 protein / RR): > 1000 µM
Inhibition of E. coli RR [4]: at best a very poor inhibitor of eRR; also recorded: failure to significantly inhibit E. coli RR up to concentrations of 1 mM

Compound: Ac-FTADADF [Ac-FTADADF]
% RI (relative inhibitory potency, (IC50 AcFTLDADF)/(IC50 peptide analog)) [1]: 4.9 ± 0.60%

Compound: Ac-FSLDADF [Ac-FSLDADF, Acetyl-Phe-Ser-Leu-Asp-Ala-Asp-Phe]
IC50 [1]: 40 to 42 µM

The next lines start with results.

IC50 ([1]; read-out: IC50): 80 µM
Compound: SFTLDADF

RR inhibition compared with AcFTLDADF [1]: comparable to AcFTLDADF
Compound: FA-DAP-C(N)FTLDADF: folate-peptide conjugate: γ-1,5-diaminopentane folate condensate coupled to thiol of NCFTLDADF via sulfo-MBS (not fully specified (residue 2))

% RI (relative inhibitory potency, (IC50 AcFTLDADF)/(IC50 peptide analog)) [1]: 35%
Compound: Ac-FTLDLDF [Ac-FTLDLDF]

% RI (relative inhibitory potency, (IC50 AcFTLDADF)/(IC50 peptide analog)) [1]: 35%
Compound: Ac-FTVDADF [Ac-FTVDADF]

IC50 [2]: 20 µM
Compound: Nc1ncnc2c1ncn2[C@H]1C[C@H](O)[C@@H](COP(=O)(O)OP(=O)(O)OP(=O)(O)O)O1 [dATP]

Fold decrease in RI relative to N-AcFTLDADF [1]: five to ten
% RI (relative inhibitory potency, (IC50 AcFTLDADF)/(IC50 peptide analog)) [1]: 7%
Compound: Ac-YTLDADF [Ac-YTLDADF]
Fold lower affinity for mR1 than AcFTLDADF [5]: 15 fold
